Data from patent publication US12162858B2, “Quinoline derivatives as inhibitors of AXL/MER RTK and CSF1R” (QURIENT CO., LTD., priority 2018, dated 2024).

Target: T1, Mer (Homo sapiens, UniProt Q12866)
T1 construct: purchased Life Technologies
T1 sequence (Q12866 21-999): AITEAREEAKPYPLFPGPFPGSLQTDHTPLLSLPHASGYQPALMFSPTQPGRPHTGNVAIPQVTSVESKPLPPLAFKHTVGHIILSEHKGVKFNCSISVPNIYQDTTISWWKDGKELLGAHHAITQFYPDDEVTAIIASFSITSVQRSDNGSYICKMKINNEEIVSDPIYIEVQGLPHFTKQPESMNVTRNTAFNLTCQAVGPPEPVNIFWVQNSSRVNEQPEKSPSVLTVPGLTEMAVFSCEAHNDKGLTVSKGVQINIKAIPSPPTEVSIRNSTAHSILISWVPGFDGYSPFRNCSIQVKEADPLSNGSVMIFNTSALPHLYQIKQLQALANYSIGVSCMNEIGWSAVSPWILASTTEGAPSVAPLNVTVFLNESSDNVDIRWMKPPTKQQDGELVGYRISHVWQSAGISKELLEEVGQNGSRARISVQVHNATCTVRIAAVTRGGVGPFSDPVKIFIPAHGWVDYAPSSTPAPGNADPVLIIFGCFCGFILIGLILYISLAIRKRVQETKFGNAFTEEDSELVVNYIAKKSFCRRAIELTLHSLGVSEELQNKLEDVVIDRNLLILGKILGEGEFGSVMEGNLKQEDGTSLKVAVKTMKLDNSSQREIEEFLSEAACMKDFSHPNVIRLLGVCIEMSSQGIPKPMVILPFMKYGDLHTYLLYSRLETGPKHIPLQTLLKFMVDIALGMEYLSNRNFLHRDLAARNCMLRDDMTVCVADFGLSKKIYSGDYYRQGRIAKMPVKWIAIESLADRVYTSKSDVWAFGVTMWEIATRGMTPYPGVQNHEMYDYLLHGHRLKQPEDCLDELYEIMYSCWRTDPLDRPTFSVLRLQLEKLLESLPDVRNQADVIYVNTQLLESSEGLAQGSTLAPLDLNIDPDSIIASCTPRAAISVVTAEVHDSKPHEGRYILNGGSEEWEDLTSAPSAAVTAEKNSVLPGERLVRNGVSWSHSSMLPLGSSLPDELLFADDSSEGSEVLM
Assay: LanthaScreen Eu kinase binding assay for Mer
Conditions: read-out: Mer kinase binding activity (Kd)
How it was run: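 Kd values come from control-normalized FRET loss, referenced to DMSO vehicle wells, after 1 h at room temperature. Each compound was serially diluted over eight steps in DMSO and competed against Tracer 236 (Alexa Fluor 647) for the kinase, which was tagged by a Eu anti-GST antibody.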

Kd [nM] | Structure (SMILES)
< 100 | COc1cc2nccc(Oc3ccc(NC(=O)c4nn(C5CCN(C)C5)cc4OCC(F)(F)F)nc3)c2cc1OC (stereo not shown) [Compound 91]
< 100 | COc1cc2nccc(Oc3ccc(NC(=O)c4nn(CC(C)C)cc4OCC(F)(F)F)cc3)c2cc1OC [Compound 87]
< 100 | COc1cc2nccc(Oc3ccc(NC(=O)c4nn(C5CCOCC5)cc4OCC(F)(F)F)nc3)c2cc1OC [Compound 90]
100 to 500 | COc1cc2nccc(Oc3ccc(NC(=O)c4nn(C5CCNC5)cc4OCC(F)(F)F)cc3F)c2cc1OC (stereo not shown) [Compound 78]
100 to 500 | COc1cc2nccc(Oc3ccc(NC(=O)c4nn(C5CCNC5)cc4OCC(F)(F)F)cc3)c2cc1OC (stereo not shown) [Compound 86]
< 100 | COc1cc2nccc(Oc3ccc(NC(=O)c4nn(C5CCN(C)C5)cc4OCC(F)(F)F)c(F)c3)c2cc1OC (stereo not shown) [Compound 94]
< 100 | COc1cc2nccc(Oc3ccc(NC(=O)c4nn(CC(C)O)cc4OCC(F)(F)F)cc3F)c2cc1OC (stereo not shown) [Compound 80]
100 to 500 | COc1cc2nccc(Oc3ccc(NC(=O)c4nn(C5CCNC5)cc4OCC(F)(F)F)cc3C)c2cc1OC (stereo not shown) [Compound 81]
< 100 | COc1cc2nccc(Oc3ccc(NC(=O)c4nn(CC(C)O)cc4OCC(F)(F)F)cc3C)c2cc1OC (stereo not shown) [Compound 83]
< 100 | COc1cc2nccc(Oc3ccc(NC(=O)c4nn(C5CC5)cc4OCC(F)(F)F)nc3)c2cc1OC [Compound 5]
< 100 | COc1cc2nccc(Oc3ccc(NC(=O)c4nn(CCN)cc4OCC(F)(F)F)cc3F)c2cc1OC [Compound 79]
100 to 500 | COc1cc2nccc(Oc3ccc(NC(=O)c4nn(CCN)cc4OCC(F)(F)F)cc3C)c2cc1OC [Compound 82]
< 100 | COc1cc2nccc(Oc3ccc(NC(=O)c4nn(CCC5CCCC5)cc4OCC(F)(F)F)nc3)c2cc1OC [Compound 93]
< 100 | COc1cc2nccc(Oc3ccc(NC(=O)c4nn(C5CCOC5)cc4OCC(F)(F)F)c(F)c3)c2cc1OC (stereo not shown) [Compound 77]
100 to 500 | COc1cc2nccc(Oc3ccc(NC(=O)c4nn(CCN)cc4OCC(F)(F)F)cc3)c2cc1OC [Compound 88]
< 100 | COc1cc2nccc(Oc3ccc(NC(=O)c4nn(CC(C)O)cc4OCC(F)(F)F)cc3)c2cc1OC (stereo not shown) [Compound 89]
< 100 | COc1cc2nccc(Oc3ccc(NC(=O)c4nn(C5CCOC5)cc4OCC(F)(F)F)cc3C)c2cc1OC (stereo not shown) [Compound 85]
< 100 | COc1cc2nccc(Oc3ccc(NC(=O)c4nn(CC5COC5)cc4OCC(F)(F)F)c(F)c3)c2cc1OC [Compound 95]
< 100 | COCCn1cc(OCC(F)(F)F)c(C(=O)Nc2ccc(Oc3ccnc4cc(OC)c(OC)cc34)c(C)c2)n1 [Compound 84]
